Assays:
H22 [1] = assay: Anti-tumor activity against mouse H22 cells allografted in ICR mice assessed as reduction in tumor weight at 15 mg/kg, iv administered daily for 21 days; format: functional; conditions: 504 h, time 21 day
K562 [2] = assay: Induction of cell cycle arrest in human K562 cells assessed as accumulation at S phase at 5 nM incubated for 48 hrs by propidium iodide/RNase staining based flow cytometry (reference value: 53.48%); format: functional
HUVEC = assay: Anti-angiogenesis activity in HUVEC assessed as inhibition of capillary-like tube formation incubated for 6 hrs by Matrigel-based optical microscopy; format: functional, cell-based; conditions: Homo sapiens, dose 5-20 nM
HepG2 = assay: Antiproliferative against human HepG2 cells assessed as reduction in cell viability measured after 72 hrs by MTT assay; format: functional, cell-based; conditions: HepG2, 72 h
Sus scrofa = organism: Sus scrofa; assay: Displacement of [3H]colchicine from porcine brain tubulin at 5 uM incubated for 2 hrs by TopCount scintillation counting method relative to control; format: tissue-based
K562 [3] = assay: Induction of cell cycle arrest in human K562 cells assessed as accumulation at G1 phase at 10 nM incubated for 48 hrs by propidium iodide/RNase staining based flow cytometry (reference value: 38.83%); format: functional
K562 [4] = assay: Anti-microtubule activity in human K562 cells assessed as disruption of microtubule network in cytoplasm incubated for 24 hrs by immunofluorescence assay; format: functional, cell-based; conditions: dose 5-20 nM
K562 [5] = assay: Induction of mitochondrial membrane potential depolarization in human K562 cells assessed proportion of cells with intact MMP at 20 nM measured after 48 hrs by JC-1 staining based flow cytometry (reference value: 98.12%); format: functional
[6] = against A against n against t against i against p against r against o against l against i against f against e against r against a against t against i against v against e against a against c against t against i against v against i against t against y against a against g against a against i against n against s against t against h against u against m against a against n against M against D against A against - against M against B against - against 2 against 3 against 1 against c against e against l against l against s against a against s against s against e against s against s against e against d against a against s against r against e against d against u against c against t against i against o against n against i against n against c against e against l against l against v against i against a against b against i against l against i against t against y against m against e against a against s against u against r against e against d against a against f against t against e against r against 7 against 2 against h against r against s against b against y against M against T against T against a against s against s against a against y against; format: functional, tissue-based, Homo sapiens; conditions: mda-mb-231
K562 [7] = assay: Induction of cell cycle arrest in human K562 cells assessed as accumulation at G2/M phase at 5 nM incubated for 48 hrs by propidium iodide/RNase staining based flow cytometry (reference value: 7.7%); format: functional
[8] = Toxicity in ICR mouse allografted with mouse H22 cells assessed as spleen morphological changes at 30 mg/kg, iv administered daily for 21 days by hematoxylin and eosin staining based microscopic analysis; format: organism-based; conditions: in vivo, 504 h, dose 30 mg/kg/day, time 21 day
K562 [9] = assay: Induction of apoptosis in human K562 cells assessed as early apoptotic cells at 10 nM incubated for 48 hrs by AnnexinV-FITC/propidium iodide staining based flow cytometry analysis (reference value: 1.47%); format: functional
H22 [10] = assay: Anti-tumor activity against mouse H22 cells allografted in ICR mice assessed as reduction in tumor weight at 30 mg/kg, iv administered daily for 21 days; format: functional; conditions: 504 h, time 21 day
K562 [11] = assay: Induction of apoptosis in human K562 cells assessed as late apoptotic cells at 10 nM incubated for 48 hrs by AnnexinV-FITC/propidium iodide staining based flow cytometry analysis (reference value: 1.78%); format: functional
K562 [12] = assay: Induction of apoptosis in human K562 cells assessed as early apoptotic cells at 20 nM incubated for 48 hrs by AnnexinV-FITC/propidium iodide staining based flow cytometry analysis (reference value: 1.47%); format: functional
H22 [13] = assay: Anti-tumor activity against mouse H22 cells allografted in iv dosed ICR mice assessed as reduction in tumor weight administered daily for 21 days; format: functional, organism-based; conditions: dose 15-30 mg/kg/day, time 21.0 day
K562 [14] = assay: Induction of apoptosis in human K562 cells assessed as early apoptotic cells at 5 nM incubated for 48 hrs by AnnexinV-FITC/propidium iodide staining based flow cytometry analysis (reference value: 1.47%); format: functional
K562 [15] = assay: Induction of mitochondrial membrane potential depolarization in human K562 cells assessed proportion of cells with collapsed MMP at 10 nM measured after 48 hrs by JC-1 staining based flow cytometry (reference value: 1.57%); format: functional
K562 [16] = assay: Induction of cell cycle arrest in human K562 cells assessed as accumulation at G1 phase at 20 nM incubated for 48 hrs by propidium iodide/RNase staining based flow cytometry (reference value: 38.83%); format: functional
[17] = Toxicity in ICR mouse allografted with mouse H22 cells assessed as body weight loss at 30 mg/kg, iv administered daily for 21 days; format: organism-based; conditions: in vivo, 504 h, dose 30 mg/kg/day, time 21 day

For `C=C(c1cc(Cl)nc(NC)c1)c1ccc(OC)c(O)c1`, the inhibition in vivo at 15 mg/kg/day (H22 [1]) was 58.7%, the Activity (K562 [2]) was 50.66% and the Activity (HUVEC) was “Dose-dependent effect”. It also gave an IC50 (HepG2) of 0.019 µM, an inhibition (Sus scrofa) of 79.3% and an Activity (K562 [3]) of 38.45%. The Activity (K562 [4]) was “Dose-dependent effect”, the Activity (K562 [5]) was 61.55% and the IC50 [6] was 0.02 µM. For the same molecule, the Activity (K562 [7]) was 9.4%, the Activity [8] was “Non-Toxic” and the Activity (K562 [9]) was 37.25%. The inhibition in vivo at 30 mg/kg/day (H22 [10]) was 68.7%, the Activity (K562 [11]) was 11.3% and the Activity (K562 [12]) was 43.83%. For the same molecule, the Activity (H22 [13]) was “Dose-dependent effect”, the Activity (K562 [14]) was 6.6% and the Activity (K562 [15]) was 20.05%. For the same molecule, the Activity (K562 [16]) was 36.65% and the Activity [17] was “Non-Toxic”.
